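Tested at 5 concentrations; 48 h exposure; 96-well plates; endpoints linearly interpolated, else capped at highest concentration. GI50 marks 50% less growth. TGI denotes the concentration required for complete inhibition of growth.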
How the values were obtained:
Assay in all cases: NCI tumour cell line growth inhibition, 48 h
[1] = tested on: 786-0 renal
[2] = tested on: A549 NSCLC
[3] = tested on: ACHN renal
[4] = tested on: BT-549 breast
[5] = tested on: CAKI-1 renal
[6] = tested on: CCRF-CEM leukemia
[7] = tested on: COLO 205 colon
[8] = tested on: DU-145 prostate
[9] = tested on: EKVX NSCLC
[10] = tested on: HCC-2998 colon
[11] = tested on: HCT-116 colon
[12] = tested on: HCT-15 colon
[13] = tested on: HL-60(TB) leukemia
[14] = tested on: HOP-62 NSCLC
[15] = tested on: HOP-92 NSCLC
[16] = tested on: HS 578T breast
[17] = tested on: HT29 colon
[18] = tested on: IGROV1 ovarian
[19] = tested on: K-562 leukemia
[20] = tested on: KM12 colon
[21] = tested on: LOX IMVI melanoma
[22] = tested on: M14 melanoma
[23] = tested on: MALME-3M melanoma
[24] = tested on: MCF7 breast
[25] = tested on: MDA-MB-231 breast
[26] = tested on: MDA-MB-435
[27] = tested on: MOLT-4 leukemia
[28] = tested on: NCI-H226 lung
[29] = tested on: NCI-H23 lung
[30] = tested on: NCI-H460 lung
[31] = tested on: NCI-H522 lung
[32] = tested on: NCI/ADR-RES ovarian
[33] = tested on: OVCAR-3 ovarian
[34] = tested on: OVCAR-4 ovarian
[35] = tested on: OVCAR-5 ovarian
[36] = tested on: OVCAR-8 ovarian
[37] = tested on: PC-3 prostate
[38] = tested on: RPMI-8226 leukemia
[39] = tested on: RXF 393 renal
[40] = tested on: SF-268 CNS
[41] = tested on: SF-295 CNS
[42] = tested on: SF-539 CNS
[43] = tested on: SK-MEL-2 melanoma
[44] = tested on: SK-MEL-28 melanoma
[45] = tested on: SK-MEL-5 melanoma
[46] = tested on: SK-OV-3 ovarian
[47] = tested on: SN12C renal
[48] = tested on: SNB-19 CNS
[49] = tested on: SNB-75 CNS
[50] = tested on: SR leukemia
[51] = tested on: SW-620 colon
[52] = tested on: T-47D breast
[53] = tested on: TK-10 renal
[54] = tested on: U251 CNS
[55] = tested on: UACC-257 melanoma
[56] = tested on: UACC-62 melanoma
[57] = tested on: UO-31 renal

For `COc1nc2c(c(=O)n1C)CN(c1ccccc1)C(=O)CN2C`, the GI50 [1] was > 100 µM, the TGI [1] was > 100 µM and the GI50 [2] was > 100 µM. The TGI [2] was > 100 µM, the GI50 [3] was 49.9 µM and the TGI [3] was > 100 µM. For the same compound, the GI50 [4] was 33.2 µM, the TGI [4] was > 100 µM and the GI50 [5] was 20.1 µM. The TGI [5] was > 100 µM, the GI50 [6] was > 100 µM and the TGI [6] was > 100 µM. For the same compound, the GI50 [7] was 40.6 µM, the TGI [7] was > 100 µM and the GI50 [8] was 61.1 µM. For the same compound, the TGI [8] was > 100 µM, the GI50 [9] was 19.9 µM and the TGI [9] was > 100 µM. For the same compound, the GI50 [10] was > 100 µM, the TGI [10] was > 100 µM and the GI50 [11] was 60.5 µM. For the same compound, the TGI [11] was > 100 µM, the GI50 [12] was 56.7 µM and the TGI [12] was > 100 µM. For the same compound, the GI50 [13] was 49.8 µM, the TGI [13] was > 100 µM and the GI50 [14] was > 100 µM. For the same compound, the TGI [14] was > 100 µM, the GI50 [15] was 0.852 µM and the TGI [15] was 55.1 µM. The GI50 [16] was 13 µM, the TGI [16] was 73.4 µM and the GI50 [17] was 60.9 µM. For the same compound, the TGI [17] was > 100 µM, the GI50 [18] was 4.33 µM and the TGI [18] was > 100 µM. For the same compound, the GI50 [19] was 59.7 µM, the TGI [19] was > 100 µM and the GI50 [20] was 27.3 µM. The TGI [20] was > 100 µM, the GI50 [21] was > 100 µM and the TGI [21] was > 100 µM. For the same compound, the GI50 [22] was 62.6 µM, the TGI [22] was > 100 µM and the GI50 [23] was 46.7 µM. For the same compound, the TGI [23] was > 100 µM, the GI50 [24] was 6.25 µM and the TGI [24] was > 100 µM. The GI50 [25] was 41.7 µM, the TGI [25] was > 100 µM and the GI50 [26] was > 100 µM. For the same compound, the TGI [26] was > 100 µM, the GI50 [27] was 33.9 µM and the TGI [27] was > 100 µM. For the same compound, the GI50 [28] was 83.8 µM, the TGI [28] was > 100 µM and the GI50 [29] was 95.1 µM. For the same compound, the TGI [29] was > 100 µM, the GI50 [30] was 60.2 µM and the TGI [30] was > 100 µM. The GI50 [31] was 96.7 µM, the TGI [31] was > 100 µM and the GI50 [32] was 72.2 µM. For the same compound, the TGI [32] was > 100 µM, the GI50 [33] was 38.4 µM and the TGI [33] was > 100 µM. For the same compound, the GI50 [34] was 71.2 µM, the TGI [34] was > 100 µM and the GI50 [35] was > 100 µM. For the same compound, the TGI [35] was > 100 µM, the GI50 [36] was 74.5 µM and the TGI [36] was > 100 µM. The GI50 [37] was 20 µM, the TGI [37] was > 100 µM and the GI50 [38] was 72.6 µM. The TGI [38] was > 100 µM, the GI50 [39] was 54.3 µM and the TGI [39] was > 100 µM. For the same compound, the GI50 [40] was 36.8 µM, the TGI [40] was > 100 µM and the GI50 [41] was 52.6 µM. The TGI [41] was > 100 µM, the GI50 [42] was > 100 µM and the TGI [42] was > 100 µM. The GI50 [43] was > 100 µM, the TGI [43] was > 100 µM and the GI50 [44] was 70 µM. The TGI [44] was > 100 µM, the GI50 [45] was 26.9 µM and the TGI [45] was > 100 µM. For the same compound, the GI50 [46] was > 100 µM, the TGI [46] was > 100 µM and the GI50 [47] was 56.4 µM. The TGI [47] was > 100 µM, the GI50 [48] was 60.4 µM and the TGI [48] was > 100 µM. For the same compound, the GI50 [49] was 48.9 µM, the TGI [49] was > 100 µM and the GI50 [50] was 17 µM. The TGI [50] was > 100 µM, the GI50 [51] was > 100 µM and the TGI [51] was > 100 µM. The GI50 [52] was 11.1 µM, the TGI [52] was > 100 µM and the GI50 [53] was 51.1 µM. The TGI [53] was > 100 µM, the GI50 [54] was 78.9 µM and the TGI [54] was > 100 µM. For the same compound, the GI50 [55] was > 100 µM, the TGI [55] was > 100 µM and the GI50 [56] was 45.8 µM. The TGI [56] was > 100 µM, the GI50 [57] was 5.73 µM and the TGI [57] was > 100 µM.

Reference: PubChem BioAssay (NCI)
